# From US11098038B2, “Imidazole-based anticancer agents and derivatives thereof, and methods of making and using same” (The University of Toledo, priority 2017, dated 2021)
# Assays:
# Assay type in all cases: cell-based
# HCT15 = assay: NCI 60 screen, HCT15; settings: Homo sapiens, HCT-15, Colon
# Experimental: (§1) The compounds synthesized were tested at the National Cancer Institute (NCI) for anti-proliferative activity in the 60 human tumor cell line assay.
# LOX IMVI = assay: NCI 60 screen, LOX IMVI; settings: Homo sapiens, Melanoma
# Experimental: as §1
# OVCAR-4 = assay: NCI 60 screen, OVCAR-4; settings: Homo sapiens, Ovarian
# Experimental: as §1
# DU-145 = assay: NCI 60 screen, DU-145; settings: Homo sapiens, Prostatic
# Experimental: as §1
# NCI-322M = assay: NCI 60 screen, NCI-322M; settings: Homo sapiens, Non-Small Cell Lung
# Experimental: as §1
# UACC-257 = assay: NCI 60 screen, UACC-257; settings: Homo sapiens, Melanoma
# Experimental: as §1
# SF-295 = assay: NCI 60 screen, SF-295; settings: Homo sapiens, CNS
# Experimental: as §1
# IGROV1 = assay: NCI 60 screen, IGROV1; settings: Homo sapiens, IGROV-1, Ovarian
# Experimental: as §1
# SF-539 = assay: NCI 60 screen, SF-539; settings: Homo sapiens, CNS
# Experimental: as §1
# SNB-19 = assay: NCI 60 screen, SNB-19; settings: Homo sapiens, CNS
# Experimental: as §1
# HOP-92 = assay: NCI 60 screen, HOP-92; settings: Homo sapiens, Non-Small Cell Lung
# Experimental: as §1
# HOP-62 = assay: NCI 60 screen, HOP-62; settings: Homo sapiens, Non-Small Cell Lung
# Experimental: as §1
# T-47D = assay: NCI 60 screen, T-47D; settings: Homo sapiens, T47D, Breast
# Experimental: as §1
# HS 578T = assay: NCI 60 screen, HS 578T; settings: Homo sapiens, Breast
# Experimental: as §1
# MDA-MB-468 = assay: NCI 60 screen, MDA-MB-468; settings: Homo sapiens, Breast
# Experimental: as §1
# MALME-3M = assay: NCI 60 screen, MALME-3M; settings: Homo sapiens, Melanoma
# Experimental: as §1
# PC-3 = assay: NCI 60 screen, PC-3; settings: Homo sapiens, Prostatic
# Experimental: as §1
# A498 = assay: NCI 60 screen, A498; settings: Homo sapiens, Renal
# Experimental: as §1
# SNB-75 = assay: NCI 60 screen, SNB-75; settings: Homo sapiens, CNS
# Experimental: as §1
# NCI/ADR-RES = assay: NCI 60 screen, NCI/ADR-RES; settings: Homo sapiens, Ovarian
# Experimental: as §1
compound,measurement,setting,value
"O=C(Cc1ccc(/C=C/C(=O)c2ncc[nH]2)cc1)Nc1ccc(Cl)cc1 [Compound 25, (E)-2-(-4 (3-(1H-imidazol-2-yl)-3-oxoprop-1-en-1-yl)phenyl)-N-(4-chlorophenyl)acetamide]",GI50,HCT15,0.879 µM
same,GI50,LOX IMVI,0.87 µM
same,GI50,OVCAR-4,4.11 µM
same,GI50,DU-145,1.7 µM
same,GI50,NCI-322M,4 µM
same,GI50,UACC-257,7.24 µM
same,GI50,SF-295,3.33 µM
same,GI50,IGROV1,3.59 µM
same,GI50,SF-539,3.33 µM
same,GI50,SNB-19,2.32 µM
same,GI50,HOP-92,5.74 µM
same,GI50,HOP-62,3.19 µM
same,GI50,T-47D,3.24 µM
same,GI50,HS 578T,18.8 µM
same,GI50,MDA-MB-468,1.68 µM
same,GI50,MALME-3M,6.24 µM
same,GI50,PC-3,2.39 µM
same,GI50,A498,5.48 µM
same,GI50,SNB-75,3.63 µM
same,GI50,NCI/ADR-RES,5.02 µM
